# Data: patent publication US20210386367A1, “DEVICES AND SYSTEMS FOR GASTROINTESTINAL MICROBIOME DETECTION AND MANIPULATION” (Progenity, Inc., priority 2018, published 2021)
# Read-outs that look alike come from different tables or passages of the source.
# Assays:
# [1] = system: Bacteroides spp. spontaneous mutants; details: B. fragilis ATCC 25285; CLSI QC range shown in parentheses; cited from earlier work
# [2] = system: E. coli spontaneous mutants; details: E. coli ATCC 25922; CLSI QC range shown in parentheses; cited from earlier work
# [3] = in vivo, po; cited from earlier work
# [4] = system: Bacteroides spp. spontaneous mutants; test: Broth microdilution MIC of spontaneous mutants; type: cell-based; details: read-out: MIC
# How it was run: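 Isolates from drug selection plates were subcultured on agar containing drug at the selection concentration and identified by MALDI, then MIC was determined by CLSI broth microdilution (M100-S28) with serial two-fold dilutions. Plates were pre-reduced 1 h in an anaerobic chamber; final inoculum ~1×10^6 CFU/mL.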
# [5] = system: B. fragilis ATCC 25285; test: Time-kill assay; type: cell-based, Bacteroides fragilis; details: 2×, 4×, 8× MIC; 2, 6, 24, 48 hr
# [6] = system: Bacteroides spp.; test: Spontaneous mutation frequency assay; type: cell-based
# Protocol: Initial values of the MIC were determined by agar dilution in accordance with guidelines from the Clinical and Laboratory Standards Institute (CLSI; (1) “Methods for Dilution Antimicrobial Susceptibility Tests for Bacteria That Grow Aerobically; Approved Standard; 11th ed.,” CLSI standard M07, 2018; (2) “Methods for Antimicrobial Susceptibility Testing of Anaerobic Bacteria; Approved Standard—Eighth Edition,” CLSI document M11-A8, 2012.).
# The agar plates were prepared by mixing a ratio of 1.0 mL of concentrated drug to 49.0 mL of the appropriate molten (47° C.) agar; the drug-supplemented agar was mixed, poured into 15-by-150 mm petri dishes and allowed to solidify and dry at room temperature prior to inoculation. […] Each plate was allowed to cool at room temperature for at least 1 hr.
# The isolates were streaked onto the appropriate agar medium and incubated for 20 hr (aerobes) or 48 hr (Bacteroides under anaerobic conditions). Using a sterile swab, several well-isolated colonies were removed and resuspended in sterile saline at a heavy cell density. Each plate was inoculated with 0.5 mL of the cell suspension (each test concentration was inoculated in duplicate). The target inoculum for each spontaneous mutation plate was 10^9-10 CFU. In addition, a portion of the inoculum from each isolate was enumerated by making dilutions, spreading on agar and counting colonies.
# Once the inoculum was absorbed into the agar, the plates were incubated at 35° C. Aerobes were examined at 24 and 48 hr, and resulting colonies were counted. Bacteroides were incubated anaerobically for 48-72 hr in the anaerobe chamber and colonies were counted.
# Colony counts from plates used to enumerate the initial inoculum density and from the resulting spontaneous mutation frequency test plates were determined. The inoculum size was calculated as CFU inoculated per plate. The spontaneous mutation frequency was calculated using the counts from duplicate spontaneous mutation assay test plates as follows:
# If there were no colonies on the antibiotic selection plates, the spontaneous mutation frequency was reported as less than the frequency observed with one colony to indicate that the spontaneous mutation frequency was less than the limit of detection (one CFU). […] The mutation prevention concentration (MPC) was reported as the lowest concentration for which no mutants were selected.
# [7] = system: Enterobacteriaceae; details: cited from earlier work
# [8] = system: Streptococcus spp. (S. pneumoniae ATCC 49619, S. pyogenes ATCC 49399, S. agalactiae ATCC 13813); details: cited from earlier work
# [9] = system: B. fragilis; test: Spontaneous mutation frequency and mutation prevention concentration (MPC); type: cell-based; details: B. fragilis ATCC 25285
# Text: (§1) As used herein, “spontaneous mutation frequency” refers to the rate at which mutations arise in a bacterium that can lead to resistance to develop to an antimicrobial agent. “Mutation prevention concentration” or “MPC” refers to the lowest concentration of antimicrobial agent above which the selective proliferation of resistant mutants is expected to occur only rarely.
# [10] = system: B. ovatus; test: as above; type: cell-based; details: B. ovatus MMX 3503
# Text: as §1
# [11] = system: E. coli ATCC 25922; test: Broth microdilution MIC (time-kill study); type: cell-based, Escherichia coli
structure (smiles),measurement,setting,value
C[C@@H](O)[C@H]1C(=O)N2C(C(=O)O)=C(S[C@@H]3CN[C@H](C(=O)N(C)C)C3)[C@H](C)[C@H]12 [meropenem],"MIC, CLSI QC range",[1],(0.03-0.25)^1 μg/mL
same,"MIC, CLSI QC range",[2],(0.008-0.06) μg/mL
same,Rat oral exposure (Dose),[3],~4%
same,MIC,"[4]; B. fragilis ATCC 25285, selected on rifaximin 4X MIC, Colony A",0.03 µg/mL
same,MIC,"[4]; B. fragilis ATCC 25285, selected on rifaximin 4X MIC, Colony B",0.06 µg/mL
same,MIC,"[4]; B. fragilis ATCC 25285, selected on rifaximin 8X MIC, Colony A",0.06 µg/mL
same,MIC,"[4]; B. fragilis ATCC 25285, selected on rifaximin 8X MIC, Colony B",0.06 µg/mL
same,MIC,[4]; B. fragilis ATCC 25285 Parent,0.06 µg/mL
same,MIC,"[4]; B. ovatus MMX 3503, selected on rifaximin 4X MIC, Colony A",0.12 µg/mL
same,MIC,"[4]; B. ovatus MMX 3503, selected on rifaximin 4X MIC, Colony B",0.12 µg/mL
same,MIC,"[4]; B. ovatus MMX 3503, selected on rifaximin 8X MIC, Colony A",0.12 µg/mL
same,MIC,"[4]; B. ovatus MMX 3503, selected on rifaximin 8X MIC, Colony B",0.12 µg/mL
same,MIC,[4]; B. ovatus MMX 3503 Parent,0.12 µg/mL
same,MIC,"[4]; B. vulgatus ATCC 8482, selected on ceftriaxone 4X MIC, Colony A",0.25 µg/mL
same,MIC,"[4]; B. vulgatus ATCC 8482, selected on ceftriaxone 4X MIC, Colony B",0.25 µg/mL
same,MIC,"[4]; B. vulgatus ATCC 8482, selected on rifaximin 4X MIC, Colony A",0.12 µg/mL
same,MIC,"[4]; B. vulgatus ATCC 8482, selected on rifaximin 4X MIC, Colony B",0.12 µg/mL
same,MIC,"[4]; B. vulgatus ATCC 8482, selected on rifaximin 8X MIC, Colony A",0.25 µg/mL
same,MIC,"[4]; B. vulgatus ATCC 8482, selected on rifaximin 8X MIC, Colony B",0.12 µg/mL
same,MIC,[4]; B. vulgatus ATCC 8482 Parent (Table 50),0.12 µg/mL
same,MIC,[4]; B. vulgatus ATCC 8482 Parent (Table 54),0.12 µg/mL
same,time-kill kinetics outcome (bactericidal = ≥3 log reduction in CFU per mL),[5],"rapid bactericidal activity against this organism at 6, 24 and 48 hr at 8×MIC, 24 and 48 hr at 4×MIC and at 24 hr at 2×MIC"
same,colonies on selection plates,[6],No Streptococcus spp. or Bacteroides spp. colonies were selected
same,% S,[7],98.3%
same,MIC50,[7],≤0.12 µg/mL
same,CLSI QC range (agar MIC),[8],0.03 to 0.25 µg/mL
same,MPC,[9],0.5 µg/mL
same,Average Count,"[9]; selection 4X MIC, 0.5 μg/mL",0 CFU
same,Count 1,"[9]; selection 4X MIC, 0.5 μg/mL",0 CFU
same,Count 2,"[9]; selection 4X MIC, 0.5 μg/mL",0 CFU
same,Spontaneous Mutation Frequency,"[9]; selection 4X MIC, 0.5 μg/mL",≤1.48 × 10^−10
same,Average Count,"[9]; selection 8X MIC, 1 μg/mL",0 CFU
same,Count 1,"[9]; selection 8X MIC, 1 μg/mL",0 CFU
same,Count 2,"[9]; selection 8X MIC, 1 μg/mL",0 CFU
same,Spontaneous Mutation Frequency,"[9]; selection 8X MIC, 1 μg/mL",≤1.48 × 10^−10
same,MPC,[10],0.5 µg/mL
same,Average Count,"[10]; selection 4X MIC, 0.5 μg/mL",0 CFU
same,Count 1,"[10]; selection 4X MIC, 0.5 μg/mL",0 CFU
same,Count 2,"[10]; selection 4X MIC, 0.5 μg/mL",0 CFU
same,Spontaneous Mutation Frequency,"[10]; selection 4X MIC, 0.5 μg/mL",≤1.05 × 10^−10
same,Average Count,"[10]; selection 8X MIC, 1 μg/mL",0 CFU
same,Count 1,"[10]; selection 8X MIC, 1 μg/mL",0 CFU
same,Count 2,"[10]; selection 8X MIC, 1 μg/mL",0 CFU
same,Spontaneous Mutation Frequency,"[10]; selection 8X MIC, 1 μg/mL",≤1.05 × 10^−10
same,MIC,[11]; E. coli ATCC 25922,0.015 µg/mL
same,MIC,"[11]; Escherichia coli, ATCC25922, broth microdilution, read-out: MIC",0.015 µg/mL
